Test results: patent US20170086736A1, “METHODS AND SYSTEMS USING NON-LABELED ANTIMETABOLITES AND ANALOGS THEREOF AS THERANOSTIC AGENTS” (The Johns Hopkins University, priority 2014, published 2017)

What was measured:
[1] = CEST MRI of drugs in PBS solution (in vitro phantom); type: physicochemical; conditions: for offset of CEST contrast corresponding to NH2 / offset of CEST contrast corresponding to OH: PBS solution, 20 mM, pH 7.4, 37° C., B1=3.6 μT, 3 s
Text: This would of course correspond only to an mM or μM change for the drug and would not be detectable on the large MRI signal of 55 M water molecules (110 M protons). However, for every saturated proton leaving from the solute to water, an intact proton relocates from water to the solute, a process so-called chemical or proton exchange, and subsequently gets saturated again, which will be transferred to the water again in the next exchange. If the exchange rate is fast enough, this continuous process can lead to great signal amplification of the NMR signal carried by the agent, even up to thousands of times (depending on the exchange rate). This can then cause a several percentage decrease in the water signal, allowing imaging of the low-concentration agent with the sensitivity of the water signal. The percentage of water signal decrease, or CEST contrast, is traditionally described by magnetization transfer ratio asymmetry (MTRasym) defined by MTRasym=(S^−Δω−S^+Δω)/S0, where […] are the MRI signal with RF irradiation at particular offsets +Δω and −Δω respectively, and So is that acquired without RF saturation (element (d) of FIG. 1). Because having detectable exchangeable protons (at an appropriate rate at an adequate concentration) is a requirement for generating CEST MRI signal, it thus opens the possibility to detect natural biocompatible molecules by their CEST signal, potentially improving the clinical translatability.
Elements (a)-(d) of FIG. 1 show an illustration of CEST contrast (taken from reference [^1] with permission). […] However, this process is repeated continuously, leading to effect amplification of magnitude depending on the exchange rate (ksw). The CEST contrast can be quantified by a NMR spectrum element (b), a z spectrum in element (c) of frequency dependence of normalized saturated water signal Ssat/S0, with S0 the non-saturated signal) or, an MTRasym plot in element (d). Elements (e)-(f) show CEST detection of drugs through their carried exchangeable protons on NH2 (blue) and OH (red) as exemplified by araC (left) and Gem (right) in PBS solution (20 mM, pH 7.4) at 37° C. using a standard CEST MRI method (RF pulse field strength (B1)=3.6 μT and duration =3 s). […] Elements (f)-(g) of FIG. 1 show the CEST contrast of them as quantified by z-spectra and MTRasym plots respectively, showing strong CEST contrast at ˜1 and ˜2 ppm corresponding to OH and NH2 respectively, which appear partially overlapped at pH 7.4 but can be resolved at low saturation power.
Other drugs, including prodrugs and drug modulators, as well as the drug carriers, are intended to be included within the general scope of this invention. Many of them have exchangeable protons such as OH, NH and NH2 (FIG. 1). Thus, in one embodiment, the water exchangeable proton corresponds to at least one of an OH, NH2 or NH group. The water-exchangeable proton can include at least one of an OH, NH2 or NH group. Other antitumor categories and the biochemical drug modulators (a non-toxic agent that can enhance the effect of drugs when used together, but has no effect when used alone) as listed in Table 1 are also intended to be within the scope of the current invention.

[2] = patients, repetitive infusions, single dose 3 g/m^2 over three hours, up to eight doses; cited from earlier work
[3] = in vivo; cited from earlier work
[4] = single dose of 800 mg/kg (i.p.); cited from earlier work

Question: Which “offset of CEST contrast corresponding to NH2” value [1] does the source give for `Nc1ccn([C@@H]2O[C@H](CO)[C@@H](O)[C@@H]2O)c(=O)n1` [araC, Cytarabine] here?
Answer: Its value is about 2 ppm.

Question: And the “offset of CEST contrast corresponding to OH” value [1]?
Answer: The value was about 1 ppm.

Question: And the cerebellar toxicity [2]?
Answer: Its cerebellar toxicity is “no noticeable cerebellar toxicity”.

Question: Which results are given for `Nc1ccn([C@@H]2O[C@H](CO)[C@@H](O)C2(F)F)c(=O)n1` [gemcitabine, Gemcitabine]?
Answer: offset of CEST contrast corresponding to NH2 [1]: ~2 ppm; offset of CEST contrast corresponding to OH [1]: ~1 ppm; offset at which the maximum CEST signal could be detected ([1]; at low pH): 3.2 ppm; maximum tolerated dose (MTD) [3]: 2200 m^g/m2; accumulation of gemcitabine in tumor [4]: up to several mM
